# Assay results from ChEMBL document CHEMBL3507680, “University of Dundee, Gates Library screen for HepG2 cell viability”.
# Experiment: Human HepG2 cell viability assay in 384 well format
# Type: toxicity, cell-based
# Design: dose 125 nL, time 70.5 hour; cytotoxicity at 70.5 h: concentration not given beside the values
# Conditions: HepG2 cells, read-out: Inhibition
row,SMILES,cytotoxicity at 70.5 h
1,CCCc1nnc(NC(C)c2ccc3c(c2)OCCO3)o1 (centres undefined),19.1%
2,COc1ccc(C(=O)NS(=O)(=O)c2ccc(CNC(C)=O)s2)cc1,-4.22%
3,CCN(CC)C(=O)c1ccn(COc2ccc(F)cc2F)n1,-7.67%
4,CNC(=O)C1CCC(NC(=O)N(C)Cc2c(C)noc2C)CC1 (centres undefined),31.6%
5,CCN1CC2(CCC1=O)CCN(C(=O)C(O)c1cccc(Cl)c1)CC2 (centres undefined),-7.18%
6,O=C(Nc1nc2c(s1)CN(S(=O)(=O)C1CC1)CC2)c1ccccn1,-1.49%
7,Cc1cc(CN(C)C2CCN(c3cccc(-c4cscn4)c3)CC2)on1,-2.57%
8,CC(=O)N[C@@H]1CN(Cc2nc3ccccc3[nH]2)C[C@H]1c1ccc(C)o1,-8.75%
9,O=C(c1ccc(Cl)cc1)N1CCC2(C1)C(=O)Nc1ccccc12 (centres undefined),-7.9%
10,Cc1noc(C)c1CN1CCCC2(CCN(C(=O)N3CCOCC3)C2)C1 (centres undefined),-8.84%
11,COc1cccc(C2CN(CCc3ccncc3)CCO2)c1 (centres undefined),-6.16%
12,COc1cc(C)nc(N2CCN(C(C)c3nc(C)no3)CC2)n1 (centres undefined),-6.32%
13,COc1cccc(Cn2cc(C3=CCN(CC(=O)N(C)C)CC3)cn2)c1,-16.4%
14,Cc1n[nH]c(C2CN(CCCOc3ccc(F)cc3)CCO2)n1 (centres undefined),-12.3%
15,O=C(c1ccccc1OC1CCCC1)N1CCCC(n2cncn2)C1 (centres undefined),-9.06%
16,COc1ccccc1C(C)(C)NC(=O)Nc1ccc(F)c(C(N)=O)c1,-4.97%
17,COc1cccc(CCN2C[C@H]3CCNCC[C@H]3S2(=O)=O)c1,23.9%
18,Fc1cccc(N2CCCC3(CN(Cc4ccccn4)CCO3)C2)c1 (centres undefined),-1.7%
19,CN(CC(=O)NC(C)(C)C)Cc1nc(-c2ccccc2)c[nH]1,39%
20,Cc1nc(CN2CCC3(CC2)C(=O)N(C)CCN3C)cs1,-4.7%
21,Cc1cc(C)n(CC2CCCN2C(=O)c2cc[nH]n2)n1 (centres undefined),-1.3%
22,CCc1ccc(NC(=O)c2ncc(C(N)=O)cc2Cl)cc1F,-107%
23,O=C(c1nnn(-c2ccccc2)n1)N(CCO)CCO,-5.32%

row,SMILES,cytotoxicity at 70.5 h
1,NCc1ccnc(Oc2ccccc2)c1,-8.2%
2,CCN(Cc1nccn1C)C(=O)c1ccc(NCCc2c[nH]cn2)nc1,4.71%
3,CCOC(C)c1nc(Cn2cccn2)cs1 (centres undefined),-8.39%
4,Cc1n[nH]c(C2CN(C(=O)CCc3ccco3)CCO2)n1 (centres undefined),9.82%
5,CCOCCCNc1nc2c(s1)c(C)nn2C,-5.29%
6,CC1CCN(CCCNC(=O)c2ccc(N(C)S(C)(=O)=O)cc2Cl)CC1,-4.93%
7,CCC1COCCN1C(=O)CNC(=O)c1ccoc1C (centres undefined),-5.54%
8,Cc1cccc(CN2CC[C@@H]3[C@@H]2CCN3Cc2cccs2)n1,-5.52%
9,CCN1CCN(Cc2coc(-c3cccc(F)c3)n2)CC1,20.2%
10,Cc1ccc(CNC(c2ccccc2)c2nccn2C)cc1 (centres undefined),22.4%
11,COc1cc(C2SCC(=O)Nc3[nH]ncc32)cc2c1OCO2 (centres undefined),-10.8%
12,O=C(Cn1nc2c(cc1=O)CCCC2)N[C@@H](Cc1ccccc1)C(=O)O,6.84%
13,CC(=O)Nc1ccc(CNCC(O)c2ccc(C)cc2)cc1 (centres undefined),-8.81%
14,CC(C)Oc1cccc(CN(C)C(=O)Cc2ccon2)c1,4.02%
15,CC(C)CC(NC(=O)C1=CCCC1)C(=O)N1CCC(CO)CC1 (centres undefined),0.304%
16,O=C(CN1CCCC1)Nc1c2c(cc3c1CCC3)CCC2,-4.72%
17,Cn1cc(S(=O)(=O)NCC(C)(O)c2ccsc2)cn1 (centres undefined),1.13%
18,Clc1snnc1CN(Cc1cccs1)C1CC1,-5.36%
19,CN(C)CC(=O)N1CCN(CC(O)c2ccc(F)cc2)CC1 (centres undefined),-1.76%
20,Cc1cccc(CNC(Cn2cncn2)c2ccccc2)c1C (centres undefined),1.21%
21,Fc1ccc(C2CN(c3ncnc4nc[nH]c34)CCO2)cc1 (centres undefined),-11.9%
22,CC(C)NC1CCCc2nc(-c3ccccc3)ncc21 (centres undefined),-14.3%
23,CCn1c(C2CCN(C(=O)c3ccc4sc(C)nc4c3)CC2)n[nH]c1=O,-17.3%

row,SMILES,cytotoxicity at 70.5 h
1,Cc1nc(C)n(CC2CCCN2CC(=O)NCCC2=CCCCC2)n1 (centres undefined),-9.96%
2,Cc1cc(CC2COCCN(CCc3ccccc3)C2)ncn1 (centres undefined),17.8%
3,CN(C)C1COC2(CCN(C(=O)c3cccc(Cl)c3)CC2)C1 (centres undefined),-9.63%
4,CC(=O)N1CCC(c2cc(C(F)(F)F)n3ccnc3n2)CC1,5.43%
5,O=C(O)CSc1nccc(-c2ccc3c(c2)OCO3)n1,-7.09%
6,O=C(c1ccoc1)N1CC[C@@H]2[C@@H](CC1)OCCN2c1cccnc1,-5.9%
7,CC(C)c1nnc(CNC2CCCN(Cc3noc(C4CC4)n3)C2)o1 (centres undefined),-5.67%
8,Cc1noc([C@@H]2C[C@H]3OCC[C@H]3N(Cc3cc(C)c(C)o3)C2)n1,-6.09%
9,CCC1(O)CCCN(c2nc(C(C)(C)C)nc3c2cnn3C)C1 (centres undefined),-9.12%
10,Cc1nc(C2CCCN2C(=O)c2ccc(=O)n(C)n2)no1 (centres undefined),-5.27%
11,Cc1cccc(Cc2nc3c([nH]2)CCCNC3=O)c1,-5.33%
12,CN1CCc2ncc(CNc3cc(N(C)C)ncn3)n2CC1,-11.9%
13,COc1ccc(-c2cccc(-c3ccn(CCN(C)C)n3)c2)nn1,-3.58%
14,Cc1csc(N2CCCN(C(=O)C(C)n3ccnc3)CC2)n1 (centres undefined),-3.25%
15,CCN(C(=O)c1ccccc1I)C1CC(=O)NC1=O (centres undefined),4.4%
16,CN(Cc1ccsc1)C(=O)Nc1cccc(N2CCOC2=O)c1,26.8%
17,CC(=O)NCCC1CCCCN1S(=O)(=O)c1cccc(Cl)c1 (centres undefined),36.4%
18,O=C(c1ccc[nH]1)N1CC2(CCN(c3ncccn3)C2)C1,1.3%
19,Cc1nn(C)cc1-c1ccnc(N(C)Cc2noc(C(C)C)n2)n1,-2.05%
20,Cc1cccc(CNC2CC(=O)N(CCc3cccc(Cl)c3)C2)n1 (centres undefined),-8.39%
21,O=C(c1ccccn1)N1C[C@@H]2CC[C@H](C1)N(C(=O)CCC1CCCC1)C2,-1.69%
22,Cc1cc(C(F)(F)F)cc(N2CCC3(CCC(=O)N(CCO)C3)CC2)n1,-4.65%
23,Fc1ccc(CN2CCCCC2Cn2cncn2)c2ncccc12 (centres undefined),25.5%

row,SMILES,cytotoxicity at 70.5 h
1,COc1ccc(C(=O)N(C)Cc2cc(C)on2)c(F)c1,-10.6%
2,O=C1CC[C@H]2CN(C3CCOCC3)CC[C@H]2N1CCC1=CCCCC1,2.84%
3,OCc1csc(N2CCN(Cc3cccc(F)c3)CC2)n1,22.2%
4,CCCc1n[nH]c(C2CN(C(=O)CCn3cc(C)cn3)CCO2)n1 (centres undefined),4.48%
5,Cc1nnc(C2Cc3ccccc3CN2Cc2nc(C3CC3)no2)o1 (centres undefined),-5.34%
6,Cc1cccc(C(=O)N2CCCCC2c2nc(C)cs2)n1 (centres undefined),-12.3%
7,Cc1cc(C(=O)N2CCCS2(=O)=O)c(C)o1,-9.77%
8,O=C(NCCN1CCCCC1)c1ccn(-c2ccccc2)n1,24.7%
9,CC(C)CCN1CCc2[nH]nc(C(=O)N3CCCC3C)c2C1 (centres undefined),-6.21%
10,O=C(NCc1ccncc1)c1ccc(Cl)cc1F,4.94%
11,CC(C)(C)c1ccc(C(=O)C2CCCN(C(=O)CNS(C)(=O)=O)C2)cc1 (centres undefined),23.1%
12,CCN(CC)c1ccc(NC(=O)NC(C)Cn2cccn2)cn1 (centres undefined),-6.74%
13,Cc1nccc(N2CCN(C3CCOCC3)CC(C(=O)N(C)C)C2)n1 (centres undefined),-13.5%
14,c1ccc(CN2CCc3c(COCc4ccncc4)cncc3C2)nc1,-4.58%
15,O=C(NCCCN1CCOCC1)c1nc(-c2ccc3cc[nH]c3c2)no1,-16.3%
16,Cc1ccc(OC2(C(=O)O)CCN(C(=O)c3ccc(F)cc3)CC2)cn1,-7.2%
17,CN(C)CCOCc1ncn2c1CN(c1ncc(F)cn1)CCC2,-3.65%
18,CNc1cccc(C2CN(C(=O)CNS(C)(=O)=O)CCO2)n1 (centres undefined),13%
19,CN(Cc1ccccc1Br)C(=O)Cn1nc(-c2ccc(F)cc2)oc1=O,-8.06%
20,Cc1ccc(C(=O)NCCNCC2CNc3ccnn3C2)cc1F (centres undefined),1.33%
21,Cn1cc(C(=O)CC2CCCN2C(=O)c2ccn3ccnc3c2)cn1 (centres undefined),-10.3%
22,COc1ccc(CN2CC(=O)N(c3ccc(C)cc3)CC2C)cc1O (centres undefined),-2.16%
23,NC(=O)C1CCN(C(=O)CCn2ccc3cc(Br)ccc32)CC1,-1.61%

row,SMILES,cytotoxicity at 70.5 h
1,COc1cc(COCC2CCN(Cc3ccccn3)CC2)cc(OC)c1,-8.26%
2,CNC(=O)C(NC(=O)CCc1cccc(OC2CCCC2)c1)C(C)C (centres undefined),6.19%
3,CC1=NC2(CCN(CC(C)c3ccccc3)CC2)C(=O)N1 (centres undefined),-8.98%
4,O=C(NCC1CCOC1)N1CCN(Cc2ccc3c(c2)OCO3)CC1 (centres undefined),3.28%
5,CN(CCN1CCCCC1=O)Cc1cc2cc3c(cc2[nH]c1=O)OCO3,-8.86%
6,O=C(NCc1cc[nH]n1)N1CCN(c2ccccc2Cl)CC1,6.1%
7,COc1cccc(C(=O)NS(=O)(=O)c2cncc(Br)c2)c1OC,-12.4%
8,CCCNC(=O)CNc1cc(C(=O)N2CCSCC2)ccc1C,-6%
9,Cc1nc(CN2CCO[C@H]3CN(C(=O)c4cccn4C)C[C@H]32)cs1,5.54%
10,CS(=O)(=O)N1CCCC(c2nc(-c3ccccc3)c[nH]2)C1 (centres undefined),-7.34%
11,Cc1cccc2c1nc1n2[C@@H](CNC2CCCCC2)COC1,8.3%
12,Cn1nccc1CNS(=O)(=O)c1cc(F)ccc1Br,-6.89%
13,CC(C)c1nccc([C@H]2C[C@@H]3CCN(Cc4ccco4)C[C@H]3O2)n1,-9.27%
14,Cc1cc(C)n(CC(C)Nc2nc(-c3ccncc3)nc3c2CNC3)n1 (centres undefined),17.3%
15,COCC1CCN(C(=O)c2cn(Cc3ccccc3F)nn2)CC1,5.43%
16,Cn1cc(CN2CCC(c3cc(COc4ccc(Cl)cc4)[nH]n3)C2)cn1 (centres undefined),0.81%
17,CCSCc1cccc(NC2CCN(C)C2=O)c1 (centres undefined),19.7%
18,O=C(c1ccc(C2CCCO2)s1)N1CCN(c2ccccc2F)CC1 (centres undefined),-4.35%
19,CCOCc1nc2c(c(NC(COC)c3ccccn3)n1)CCNCC2 (centres undefined),-3.42%
20,CCOC(=O)CNC(=O)c1scnc1C,-8.4%
21,O=C(NCc1ccnc(OCC(F)(F)F)c1)NCC1CCOC1 (centres undefined),-15.8%
22,Cc1nnc(C(C)N2CCc3[nH]c4ccccc4c3C2)o1 (centres undefined),-4.16%
